Structures can show the parent of a compound that is named as a salt.
Columns and labels:
Assay type in all cases: in vivo
[1] = tested on: male ICR mice; assay: Protective Effect against Hypobaric Hypoxia; details: Mus musculus, po, 2 h, 80 mg/kg orally, one or two hours before 210 mmHg, vehicle group (5% dimethylsulfoxide, 5% Cremophor EL) = 100, read-out: Survival time (ratio)
Method: (§1) Next, the pharmacological activity of typical compounds of this invention is explained in detail below. The compounds of this invention shown in Table 1 where subjected to the following test in the form of a hydrochloride to obtain the results shown in each test item.
2. Protective Effect against Hypobaric Hypoxia
Each mouse was given 80 mg/kg of test compound orally one or two hours before the mice were placed under the hypobaric condition, and the survival time was measured.
The test compounds were dissolved in a physiological saline solution. However, the test compounds Nos. 7 and 23 were dissolved in an aqueous solution containing 5% of dimethylsulfoxide and 5% of Cremophor EL, and the control compound A (flunarizine) was dissolved in a 1.5% aqueous tartaric acid solution and then they were administered. Each study was carried out using 20 mice per group.
The protective effect against hypobaric hypoxide was determined as a ratio of the survival time of the group to which the test compounds was administered to that of the group to which an aqueous solution containing 5% of dimethylsulfoxide and 5% of Cremophor EL, the latter being indicated as 100.

[2] = tested on: vertebral blood flow (VBF); assay: Vertebral Blood Flow Increasing Activity (anesthetized dogs, intravenous); details: anesthetized mongrel dogs; for ED50: Canis lupus familiaris, iv, increase of VBF by 1 mg/kg papaverine hydrochloride regarded as 100%, 2-5 per group, test compounds as hydrochloride; for Cerebral vessel selectivity: ratio of percent increase of VBF to FBF (femoral blood flow), i.v.
Method: Next, the pharmacological activity of typical compounds of this invention is explained in detail below.
- 1. Vertebral Blood Flow Increasing Activity
Mongrel dogs of both sexes weighing from 12 to 20 kg were anesthetized with sodium pentobarbital.
Vertebral blood flow (VBF) and femoral blood flow (FBF) were measured by an electromagnetic flowmeter (MFV-2100 and MFV-3100, Nihon Kohden).
Test compound solutions were injected intravenously in a volume of 0.2 ml/kg.
Also, the ratio of percent increase of VBF to FBF elicited by test compounds were indicated as an index of cerebral vessel selectivity.
The test compounds were dissolved in a physiological saline solution.
Thereafter, the resulting solution was diluted with a physiological saline solution to the desired concentration. Each study was carried out using 2-5 dogs per group.

[3] = tested on: male ICR mice; assay: Acute Toxicity; details: intravenous, 25 mg/kg, three male ICR mice per group
Method: as §1
A test compounds were intravenously administered to a group of three male ICR mice, weighing 20 to 26 g. The mortality was determined.
The test compounds were dissolved in a physiological saline solution. However, the test compound Nos. 7, 23 and 24 were dissolved in an aqueous solution containing 10% of dimethylsulfoxide and 10% of Cremophor EL and flunarizine was dissolved in 0.1M aqueous lactic acid solution.

SMILES: Fc1ccc(C(c2ccc(F)cc2)N2CCN(C/C=C/c3ccccc3)CC2)cc1 [Control compd. A, Flunarizine dihydrochloride, reference compound]
- response vs control in vivo at 80 mg/kg [1]: 61%
- ED50 [2]: 0.28 mg/kg
- Cerebral vessel selectivity [2]: 2.1
- mortality [3]: no death case was found

SMILES: C(=C\c1ccccc1)/CN1CCN(C2c3ccccc3CCc3ncccc32)CC1 (stereo not shown) [compound 1]
- response vs control in vivo at 80 mg/kg [1]: 180%
- mortality [3]: no death case was found

SMILES: C(=C\c1ccccc1)/CN1CCN(C2c3ccccc3CCc3cnccc32)CC1 (stereo not shown) [compound 2]
- ED50 [2]: 0.34 mg/kg
- Cerebral vessel selectivity [2]: 8.8

SMILES: COc1ccc(/C=C/CN2CCN(C3c4ccccc4CCc4ncccc43)CC2)cc1OC (stereo not shown) [compound 3]
- response vs control in vivo at 80 mg/kg [1]: 136%
- ED50 [2]: 0.3 mg/kg
- Cerebral vessel selectivity [2]: 5.0
- mortality [3]: no death case was found

SMILES: COc1ccccc1/C=C/CN1CCN(C2c3ccccc3CCc3ncccc32)CC1 (stereo not shown) [compound 4]
- ED50 [2]: 0.22 mg/kg
- Cerebral vessel selectivity [2]: 3.0

SMILES: COc1ccc(/C=C/CN2CCN(C3c4ccccc4CCc4ncccc43)CC2)cc1 (stereo not shown) [compound 5]
- ED50 [2]: 0.3 mg/kg
- Cerebral vessel selectivity [2]: 8.8

SMILES: O=[N+]([O-])c1ccc(/C=C/CN2CCN(C3c4ccccc4CCc4ncccc43)CC2)cc1 (stereo not shown) [compound 6]
- response vs control in vivo at 80 mg/kg [1]: 135%
- mortality [3]: no death case was found

SMILES: COc1ccc(/C=C/CN2CCN(C3c4ccccc4CCc4ncccc43)CC2)cc1Oc1ccccc1 (stereo not shown) [compound 7]
- response vs control in vivo at 80 mg/kg [1]: 158%
- ED50 [2]: 0.11 mg/kg
- Cerebral vessel selectivity [2]: 16.7
- mortality [3]: no death case was found

SMILES: COc1ccc(/C=C/CN2CCN(C3c4ccccc4CCc4ncccc43)CC2)c(OC)c1OC (stereo not shown) [compound 8]
- ED50 [2]: 0.14 mg/kg
- Cerebral vessel selectivity [2]: 4.5
- mortality [3]: no death case was found

SMILES: C(=C\c1ccc2c(c1)OCO2)/CN1CCN(C2c3ccccc3CCc3ncccc32)CC1 (stereo not shown) [compound 9]
- response vs control in vivo at 80 mg/kg [1]: 155%
- ED50 [2]: 0.45 mg/kg
- Cerebral vessel selectivity [2]: 6.9

SMILES: COc1ccc(/C=C/CN2CCN(C3c4ccccc4CCc4ncccc43)CC2)cc1[N+](=O)[O-] (stereo not shown) [compound 10]
- ED50 [2]: 0.17 mg/kg
- Cerebral vessel selectivity [2]: 9.1
- mortality [3]: no death case was found

SMILES: Clc1cccc(/C=C/CN2CCN(C3c4ccccc4CCc4ncccc43)CC2)c1 (stereo not shown) [compound 11]
- response vs control in vivo at 80 mg/kg [1]: 146%
- mortality [3]: no death case was found

SMILES: Clc1ccc(/C=C/CN2CCN(C3c4ccccc4CCc4ncccc43)CC2)cc1Cl (stereo not shown) [compound 12]
- response vs control in vivo at 80 mg/kg [1]: 129%
- ED50 [2]: 0.3 mg/kg
- Cerebral vessel selectivity [2]: 5.6
- mortality [3]: no death case was found

SMILES: Fc1ccc(/C=C/CN2CCN(C3c4ccccc4CCc4ncccc43)CC2)cc1F (stereo not shown) [compound 13]
- response vs control in vivo at 80 mg/kg [1]: 148%
- mortality [3]: no death case was found

SMILES: O=[N+]([O-])c1cccc(/C=C/CN2CCN(C3c4ccccc4CCc4ncccc43)CC2)c1 (stereo not shown) [compound 14]
- response vs control in vivo at 80 mg/kg [1]: 139%
- ED50 [2]: 0.3 mg/kg
- Cerebral vessel selectivity [2]: 3.8
- mortality [3]: no death case was found

SMILES: COc1cc(/C=C/CN2CCN(C3c4ccccc4CCc4ncccc43)CC2)ccc1Oc1cccnc1 (stereo not shown) [compound 15]
- ED50 [2]: 0.18 mg/kg
- Cerebral vessel selectivity [2]: 4.6

SMILES: COc1ccc(/C=C/CN2CCN(C3c4ccccc4CCc4ncccc43)CC2)cc1Oc1cccnc1 (stereo not shown) [compound 16]
- ED50 [2]: 0.15 mg/kg
- Cerebral vessel selectivity [2]: 3.6

SMILES: COc1ccc(/C=C/CN2CCN(C3c4ccccc4CCc4ncccc43)CC2)cc1N (stereo not shown) [compound 17]
- response vs control in vivo at 80 mg/kg [1]: 143%
- mortality [3]: no death case was found

SMILES: Clc1cccc(/C=C/CN2CCN(C3c4ccccc4CCc4ncccc43)CC2)c1Cl (stereo not shown) [compound 18]
- ED50 [2]: 0.3 mg/kg
- Cerebral vessel selectivity [2]: 10.4
- mortality [3]: no death case was found

SMILES: C(=C\c1ccc2sccc2c1)/CN1CCN(C2c3ccccc3CCc3ncccc32)CC1 (stereo not shown) [compound 19]
- response vs control in vivo at 80 mg/kg [1]: 138%
- ED50 [2]: 0.32 mg/kg
- Cerebral vessel selectivity [2]: 4.1
- mortality [3]: no death case was found

SMILES: C(=C\c1cccc2ccsc12)/CN1CCN(C2c3ccccc3CCc3ncccc32)CC1 (stereo not shown) [compound 20]
- response vs control in vivo at 80 mg/kg [1]: 142%
- ED50 [2]: 0.36 mg/kg
- Cerebral vessel selectivity [2]: 4.1
- mortality [3]: no death case was found

SMILES: O=[N+]([O-])c1cccc2c(/C=C/CN3CCN(C4c5ccccc5CCc5ncccc54)CC3)cccc12 (stereo not shown) [compound 21]
- ED50 [2]: 0.33 mg/kg
- Cerebral vessel selectivity [2]: 3.4
- mortality [3]: no death case was found

SMILES: C1=Cc2ncccc2C(N2CCN(C/C=C/c3ccccc3)CC2)c2ccccc21 (stereo not shown) [compound 22]
- ED50 [2]: 0.15 mg/kg
- Cerebral vessel selectivity [2]: 5.4

SMILES: O=[N+]([O-])c1ccc2c(c1)C(N1CCN(C/C=C/c3ccccc3)CC1)c1ccccc1CC2 (stereo not shown) [compound 23]
- response vs control in vivo at 80 mg/kg [1]: 205%
- ED50 [2]: 0.32 mg/kg
- Cerebral vessel selectivity [2]: 5.0
- mortality [3]: no death case was found

SMILES: COc1ccccc1/C=C/CN1CCN(C2c3ccccc3CCc3ccc([N+](=O)[O-])cc32)CC1 (stereo not shown) [compound 24]
- ED50 [2]: 0.35 mg/kg
- Cerebral vessel selectivity [2]: 14.3
- mortality [3]: no death case was found

SMILES: O=[N+]([O-])c1ccc2c(c1)C(N1CCN(C/C=C/c3ccccc3)CC1)c1ccccc1SC2 (stereo not shown) [compound 25]
- ED50 [2]: 0.28 mg/kg
- Cerebral vessel selectivity [2]: 10.6

SMILES: O=[N+]([O-])c1cccc(/C=C/CN2CCN(C3c4ccccc4CCc4ccc([N+](=O)[O-])cc43)CC2)c1 (stereo not shown) [compound 26]
- ED50 [2]: 0.28 mg/kg
- Cerebral vessel selectivity [2]: 4.4
